# “And” between values parts separate entries of the source, which are not always exact repeats. Identical values can stand only once.
# Experiments:
# Assay type in all cases: cell-based, human
# PANC1 cells [1] = assay: Ratio GSH/GSSG, colorimetric kit
# Procedure: (§1) GSH and GSSG levels were determined in AGS and PANC1 cells after 3 and 24 h of treatment with the compounds (using H2O2 as a positive control) with the Glutathione Colorimetric Detection Kit (ThermoFisher) following the manufacturer’s instructions. Thirty minutes after adding the Colorimetric Detection Reagent and the Reaction Mixture, the absorbance was read at 405 nm. A standard curve was generated with each assay to interpolate the sample results. To measure GSSG, standards and samples must be diluted with the Sample Diluent containing 2-vinylpyridine.
# AGS cells [2] = assay: Ratio GSH/GSSG, colorimetric kit
# Procedure: as §1
# AGS cells [3] = assay: SA-β-Gal histochemical staining; details: Fig. S4A
# Procedure: SA-β-Gal activity was measured following two different approaches. (i) AGS, MKN45 and PANC1 cells (5 × 10^4) were seeded in 24-multiwell dishes and incubated overnight. […] For flow cytometry cell senescence detection, cells were tripsinized, fixed for 15 min with PFA 4% and stained with the CellEvent Senescense Green Flow Cytometry Assay Kit (C10840, Invitrogen) according to manufacturer’s instructions. CellEvent Senescense Green Probe was used at a 1:500 dilution and fluorescence was detected using the filter (Ex488nm/Em530/30) BL1 with a 4-laser Attune NxT Acoustic Cytometer (Thermo Fisher Scientific). […] After 3 h, the treatments were removed, new supplemented medium was added, and cells were incubated for an additional 24 h. Finally, SA-β-Gal staining was performed using the Senescence Cells Histochemical Staining Kit (CS0030-1KT) according to the manufacturer’s instructions.
# PANC1 cells [4] = assay: ROS detection by confocal microscopy (DHE, MitoSox); details: PANC1, 1 h treatment; H2O2 200 µM, CDDP 10 µM, I5 20 µM, I6 20 µM
# Procedure: Tumor cells were seeded at a density of 3 × 10^5 cells in 15 µm 8-well IBIDI plates and incubated overnight. […] Subsequently, cells were stained with 10 μM of dihydroethidium (DHE, cytosolic O2^·- probe, Sigma-Aldrich) or with 5 μM of Mitosox (mitochondrial O2^·- probe, Sigma-Aldrich) for 15–30 min[79] and then visualized on a confocal microscope (Confocal LSM 710 Zeiss, Biomedical Research Institute Alberto Sols, IIBm-CSIC-UAM, Madrid, Spain). The image analysis was realized using the software program Image J.
# MKN45 cells = assay: Immunofluorescence of γ-H2AX foci; details: Fig. 3B; for foci/cell, number of cells in class: cell count
# Procedure: Cells (7 × 10^4) were seeded on 20 mm coverslips. […] Coverslips were incubated for 1 h with the primary antibody (Cell Signaling: H2AX Ser139 (#2595) and 53BP1 (#4937)) at room temperature, followed by a 1 h incubation with the appropriate secondary antibody. DNA was stained with DAPI. Fluorescence microscopy was performed using a NIKON Eclipse 90i. The image analysis was performed using the software program Nikon NIS-Elements and Image J.
# PANC1 cells [5] = assay: Western blotting (p-p53, p-JNK, p-p38, p-ERK, p-CHK1/2, Mcl1, BID, BAX); details: for fold change p-ERK vs Tubulin / fold change p-JNK vs Tubulin / fold change p-p38 vs Tubulin / fold change p-p53 vs Tubulin: PANC1, Fig. 4A, replicate values
# Procedure: (§2) Total protein extracts were obtained by adding the lysis buffer: 25 mM HEPES pH 7.5, 0.3 M NaCl, 1.5 mM MgCl2, 0.2 mM EDTA, 0.5 mM DTT, 20 mM β-glicerophosphate, 0.1 mM Na3VO4, 0.1% triton X-100; in the presence of protease inhibitors. Twenty μg of protein per sample were loaded and resolved using 8%, 10% or 15% SDS-PAGE polyacrylamide gels, and then transferred onto PVDF membranes, followed by immunodetection using appropriate antibodies, purchased from Santa Cruz Technology: Mcl-1 (sc-819), Cell Signaling Technology: BIM, BID, BAX (#9942), p-p38 (1:2000, #4631), p-p53^ser15 (#9284), p-ERK1/2 (1:2000, #9106), p-CHK1^ser345 and p-CHK2^ser19 (#9931), Promega Corporation-Spain: p-JNK (#V7932), or Sigma-Aldrich: α-tubulin (1:10000, #TP026). Unless indicated, all antibodies were diluted 1:1000. Secondary antibodies conjugated with horseradish peroxidase were purchased from BioRad, and chemiluminescence detection was performed using ECL (Santa Cruz Biotechnology).
# AGS cells [6] = assay: as above; details: for fold change p-ERK vs Tubulin / fold change p-JNK vs Tubulin / fold change p-p38 vs Tubulin / fold change p-p53 vs Tubulin: Fig. 4A, replicate values; for fold change BID full length vs Tubulin / fold change MCL1 vs Tubulin: Fig. S3B
# Procedure: as §2
compound,measurement,setting,value
"CC(C)[NH][Pt@SP3]([I])([I])[NH]C(C)C [I5, trans-[PtI2(isopropylamine)2]]",GSH/GSSG,"PANC1 cells [1]; PANC1, 3, relative to Control = 1",0.746 and 0.7881 and 0.8512
same,GSH/GSSG,"PANC1 cells [1]; PANC1, 24, relative to Control = 1",0.8241 and 0.8337 and 0.9592
same,GSH/GSSG,"AGS cells [2]; AGS, 3, relative to Control = 1",0.9172 and 0.9228 and 0.9268
same,GSH/GSSG,"AGS cells [2]; AGS, 24, relative to Control = 1",0.5757 and 0.62 and 0.7864
same,Fold change % Senescence,AGS cells [3],58.06% and 57.14% and 43.1%
same,"DHE fluorescence intensity (per cell), cytosolic O2•−",PANC1 cells [4],90.3731 and 85.3678 and 75.6942 and 74.4248 and 73.3485 and 72.8941
same,"foci/cell, share of cells in class (Suma 100)",MKN45 cells; class 16-30 foci/cell,20
same,"foci/cell, number of cells in class",MKN45 cells; class 16-30 foci/cell,5
same,"foci/cell, share of cells in class (Suma 100)",MKN45 cells; class 31-45 foci/cell,24
same,"foci/cell, number of cells in class",MKN45 cells; class 31-45 foci/cell,6
same,"foci/cell, share of cells in class (Suma 100)",MKN45 cells; class 46-60 foci/cell,20
same,"foci/cell, number of cells in class",MKN45 cells; class 46-60 foci/cell,5
same,"foci/cell, share of cells in class (Suma 100)",MKN45 cells; class <15 foci/cell,16
same,"foci/cell, number of cells in class",MKN45 cells; class <15 foci/cell,4
same,"foci/cell, share of cells in class (Suma 100)",MKN45 cells; class >61 foci/cell,20
same,"foci/cell, number of cells in class",MKN45 cells; class >61 foci/cell,5
same,activation of p53 (p-p53 western blot),"PANC1 cells [5]; PANC1, IC50, 1, 3, 6 and 24 h",did not activate p53
same,"phosphorylation of CHK1/2 (DDR pathway, western blot)","PANC1 cells [5]; PANC1, IC50, 1, 3, 6 or 24 h",did not activate
same,fold change BAX vs Tubulin,"PANC1 cells [5]; PANC1, time 1 h, Fig. S3B",1.558 fold change and 0.8186 fold change and 1.264 fold change
same,fold change BAX vs Tubulin,"PANC1 cells [5]; PANC1, time 3 h, Fig. S3B",1.103 fold change and 1.1737 fold change and 1.2 fold change
same,fold change BAX vs Tubulin,"PANC1 cells [5]; PANC1, time 6 h, Fig. S3B",1.097 fold change and 1.226 fold change and 1.154 fold change
same,fold change BAX vs Tubulin,"PANC1 cells [5]; PANC1, time 24 h, Fig. S3B",1.153 fold change and 1.646 fold change and 1.378 fold change
same,fold change BID full length vs Tubulin,"PANC1 cells [5]; PANC1, time 24 h, Fig. S3B",0.5478 fold change and 0.965 fold change and 0.596 fold change
same,fold change MCL1 vs Tubulin,"PANC1 cells [5]; PANC1, time 24 h, Fig. S3B",1.638 fold change and 3.054 fold change and 2.481 fold change
same,fold change p-ERK vs Tubulin,PANC1 cells [5]; Time 1 h,5.052 fold change and 7.4391 fold change and 5.41 fold change
same,fold change p-JNK vs Tubulin,PANC1 cells [5]; Time 1 h,2.895 fold change and 2.7686 fold change and 4.719 fold change
same,fold change p-p38 vs Tubulin,PANC1 cells [5]; Time 1 h,2.229 fold change and 1.109 fold change and 1.075 fold change
same,fold change p-p53 vs Tubulin,PANC1 cells [5]; Time 1 h,0.74 fold change and 1.11 fold change and 0.95 fold change
same,fold change p-ERK vs Tubulin,PANC1 cells [5]; Time 3 h,4.573 fold change and 11.3646 fold change and 8.3 fold change
same,fold change p-JNK vs Tubulin,PANC1 cells [5]; Time 3 h,1.5726 fold change and 2.305 fold change and 1.813 fold change
same,fold change p-p38 vs Tubulin,PANC1 cells [5]; Time 3 h,2.01 fold change and 1.474 fold change and 1.299 fold change
same,fold change p-p53 vs Tubulin,PANC1 cells [5]; Time 3 h,0.37 fold change and 1.05 fold change and 0.6 fold change
same,fold change p-ERK vs Tubulin,PANC1 cells [5]; Time 6 h,3.1087 fold change and 13.4172 fold change and 7.72 fold change
same,fold change p-JNK vs Tubulin,PANC1 cells [5]; Time 6 h,2.264 fold change and 2.75 fold change and 2.02 fold change
same,fold change p-p38 vs Tubulin,PANC1 cells [5]; Time 6 h,1.737 fold change and 1.3292 fold change and 1.51 fold change
same,fold change p-p53 vs Tubulin,PANC1 cells [5]; Time 6 h,0.46 fold change and 1.28 fold change and 0.68 fold change
same,fold change p-ERK vs Tubulin,PANC1 cells [5]; Time 24 h,0.9081 fold change and 11.3435 fold change and 3.15 fold change
same,fold change p-JNK vs Tubulin,PANC1 cells [5]; Time 24 h,0.7671 fold change and 1.164 fold change and 1.094 fold change
same,fold change p-p38 vs Tubulin,PANC1 cells [5]; Time 24 h,1.276 fold change and 1.422 fold change and 1.33 fold change
same,fold change p-p53 vs Tubulin,PANC1 cells [5]; Time 24 h,0.81 fold change and 1.22 fold change and 0.52 fold change
same,activation of p53 (p-p53 western blot),"AGS cells [6]; IC50, 1, 3, 6 and 24 h",did not activate p53
same,"phosphorylation of CHK1/2 (DDR pathway, western blot)","AGS cells [6]; IC50, 1, 3, 6 or 24 h",did not activate
same,fold change p-ERK vs Tubulin,AGS cells [6]; Time 1 h,3.337 fold change and 2.237 fold change and 6.03 fold change
same,fold change p-JNK vs Tubulin,AGS cells [6]; Time 1 h,3.178 fold change and 2.647 fold change and 2.394 fold change
same,fold change p-p38 vs Tubulin,AGS cells [6]; Time 1 h,1.6079 fold change and 2.911 fold change and 3.19 fold change
same,fold change p-p53 vs Tubulin,AGS cells [6]; Time 1 h,0.8674 fold change and 0.8424 fold change and 1.7105 fold change
same,fold change p-ERK vs Tubulin,AGS cells [6]; Time 3 h,6.263 fold change and 7.52 fold change and 5.909 fold change
same,fold change p-JNK vs Tubulin,AGS cells [6]; Time 3 h,3.912 fold change and 2.163 fold change and 1.799 fold change
same,fold change p-p38 vs Tubulin,AGS cells [6]; Time 3 h,0.8627 fold change and 3.016 fold change and 3.496 fold change
same,fold change p-p53 vs Tubulin,AGS cells [6]; Time 3 h,0.5433 fold change and 0.6274 fold change and 1.359 fold change
same,fold change p-ERK vs Tubulin,AGS cells [6]; Time 6 h,3.858 fold change and 7.71 fold change and 6.1 fold change
same,fold change p-JNK vs Tubulin,AGS cells [6]; Time 6 h,2.706 fold change and 2.4308 fold change and 2.197 fold change
same,fold change p-p38 vs Tubulin,AGS cells [6]; Time 6 h,1.573 fold change and 3.845 fold change and 3.365 fold change
same,fold change p-p53 vs Tubulin,AGS cells [6]; Time 6 h,0.4994 fold change and 0.627 fold change and 1.555 fold change
same,fold change p-ERK vs Tubulin,AGS cells [6]; Time 24 h,3.8691 fold change and 7.1 fold change and 5.002 fold change
same,fold change p-JNK vs Tubulin,AGS cells [6]; Time 24 h,3.2721 fold change and 2.291 fold change and 2.816 fold change
same,fold change p-p38 vs Tubulin,AGS cells [6]; Time 24 h,3.758 fold change and 3.606 fold change and 2.16 fold change
same,fold change p-p53 vs Tubulin,AGS cells [6]; Time 24 h,0.7787 fold change and 0.8882 fold change and 1.672 fold change
same,fold change BID full length vs Tubulin,AGS cells [6]; time 1 h,0.978 fold change and 1.383 fold change and 0.822 fold change
same,fold change BID full length vs Tubulin,AGS cells [6]; time 3 h,0.826 fold change and 0.919 fold change and 0.851 fold change
same,fold change MCL1 vs Tubulin,AGS cells [6]; time 3 h,0.354 fold change and 0.557 fold change and 0.657 fold change
same,fold change BID full length vs Tubulin,AGS cells [6]; time 6 h,0.842 fold change and 0.933 fold change and 0.854 fold change
same,fold change MCL1 vs Tubulin,AGS cells [6]; time 24 h,1.039 fold change and 1.002 fold change and 0.903 fold change
